Assay results from PMC11157767 (Molecular Cancer, 2024).

Test system: murine TFG-MET tumor cells
Details: 7 days; RT 0Gy - 8Gy
Experimental: For both compounds 1 µM was used as positive control.
Compound concentrations comprised 10µM and 9 serial 1:3 dilutions in 4 replicates each and radiation doses ranged from 0Gy – 8Gy. […] Tested compound concentrations comprised 10 µM and 9 serial 1:3 dilutions in 4 replicates each. ZIP synergy scores were calculated based on cell numbers according to the CellTiter-Glo Assay by using the synergyfinder tool.

| Structure (SMILES) | combination effect with RT (ZIP synergy model) |
| --- | --- |
| CNC(=O)c1ccc(-c2cnc3ncc(Cc4ccc5ncccc5c4)n3n2)cc1F [Capmatinib] | additive effect with a trend towards synergy |
| C[C@@H](Oc1cc(-c2cnn(C3CCNCC3)c2)cnc1N)c1c(Cl)ccc(F)c1Cl [Crizotinib] | additive effect with a trend towards synergy |
